Target: T1, Angiotensin II Receptor (Bos taurus, UniProt P25104)
T1 construct: The brownish tissue forming the adrenal cortex is scraped off and finely minced with scissors before homogenization; from tissue; host or cells: beef adrenal cortex, microsomal membranes (100,000 x g pellet)
T1 sequence (P25104 1-359): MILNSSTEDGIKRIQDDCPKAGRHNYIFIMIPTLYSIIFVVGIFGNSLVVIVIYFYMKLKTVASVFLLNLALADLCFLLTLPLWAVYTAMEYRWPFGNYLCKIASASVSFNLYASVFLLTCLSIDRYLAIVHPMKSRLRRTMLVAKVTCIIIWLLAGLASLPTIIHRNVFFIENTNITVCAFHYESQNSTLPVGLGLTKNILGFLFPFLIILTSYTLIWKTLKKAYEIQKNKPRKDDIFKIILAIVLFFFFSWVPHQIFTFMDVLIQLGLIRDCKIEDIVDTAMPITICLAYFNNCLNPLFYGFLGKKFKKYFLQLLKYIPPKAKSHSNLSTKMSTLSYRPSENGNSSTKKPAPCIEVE
Assay: Receptor binding assay: binding of [^125 I](Sar^1,Ile^8)AngII
Details: beef adrenal cortex membranes, 60 min, room temperature
Text: Beef adrenals are obtained from a local slaughter house (Maxwell-Cohen). [^125 I](Sar^1,Ile^8)AngII, S. A. 2200 Ci/mmole, is purchased from Dupont (NEN®, Boston, Mass.). All unlabeled AngII analogs, Dimethylsulfoxide (DMSO), nucleotides, bovine serum albumin (BSA) are purchased from Sigma Chemical Co., St. Louis, Mo. U.S.A.
Approximately sixteen (16) to twenty (20) beef adrenal glands are processed as follows: fresh adrenal glands received on crushed ice are cleaned of fatty tissues and the tough membranes encapsulating the glands are removed and discarded. […] A 100 ul aliquot is withdrawn and the protein content of the preparation is determined by the Lowry's method (Lowry, O. H., Rosebrough, N. P., Farr, A. L. and Randall, R. J., Protein measurement with Polin phenol reagent. J. Biol. Chem., […], 265-275, 1951). […]
The binding of [^125 I](Sar^1 Ile^8)AngII to microsomal membranes is initiated by the addition of reconstituted membranes (1:10 vols.) in freshly made 50.0 mM Tris.HCl buffer, pH 7.4 containing 0.25% heat inactivated bovine serum albumin (BSA): 80 ul membrane protein (10 to 20 ug/assay) to wells already containing 100 ul of incubation buffer (as described above) and 20 ul [^125 I](Sar^1 Ile^8)AngII (Specific Activity, 2200 Ci/mmole). Non-specific binding is measured in the presence of 1.0 uM unlabeled (Sar^1,Ile^8)AngII, added in 20 ul volume. […]

IC50: 3.5 nM
SMILES: CCCCc1nc2ccc(C(C)(O)CC3CCCN3)cc2c(=O)n1Cc1ccc(-c2ccccc2-c2nnn[nH]2)cc1 (stereo not drawn) [Example 79, CIS-2-Butyl-6-[1-hydroxy-1-methyl-2-(2-pyrrolidinyl)ethyl]-3-[[21-(1H-tetrazol-5-yl)[1,1'-biphenyl]-4-yl]methyl]-4(3H)-quinazolinone]

From US5292734A, “Angiotensin II receptor blocking 2,3,6 substituted quinazolinones” (American Cyanamid Company, priority 1993, dated 1994)
